Measured values from US20260060918A1, “HIGH-PERMEABILITY INCLUSION FOR SOOTHING SKIN REDNESS, HEAT, AND PAIN, AND PREPARATION METHOD AND USE THEREOF” (N.O.D TOPIA (GUANGZHOU) BIOTECHNOLOGY CO.,LTD., priority 2023, published 2026).

Tested on: LPS-induced HaCaT cells
Test: Anti-inflammatory and soothing experiment: inflammatory factors secreted by LPS-induced HaCaT cells (ELISA)
Format: cell-based
Conditions: inclusion at volume ratio of 0.3% (dexamethasone 50 µg/mL) with 50 µg/ml LPS, 24 h, supernatant, Mean ± SD, n = 3
Experimental: In vitro stimuli can activate toll-like receptors (TLR-2 and TLR-4) on keratinocytes, leading to the activation of MAPK and NF-κB pathways. Then, the keratinocytes produce IL-1, IL-6, IL-8, TNF-α, and human HBD-2 (defensins), which induces inflammation and causes skin discomfort. The anti-inflammatory effects of the inclusions in Examples 1 to 9 and Comparative Examples 1 to 9 were evaluated by using LPS-induced HaCaT cells as an inflammatory cell model in vitro and detecting inflammatory factors IL-la, […], and TNF-α secreted in cell supernatant by an ELISA kit.
The HaCaT cells were inoculated into a 12-well plate with a density of 2.0-3.0×10^5 cells/well, and incubated in an incubator at a temperature of 37±1° C. and a humidity of 90±5%. After the incubation, the culture plate was taken out, and the original culture solution in the well was discarded. In the sample group, 1 mL of test samples with a volume ratio of 0.3% and 50 µg/ml of LPS culture solution were added to each well; in the model group, only 50 µg/mL of LPS culture solution were added; in the positive control group, 1 mL of dexamethasone ([…]) and LPS ([…]) culture solution was added, while in the blank negative control group, 1 mL of culture solution was only added for culturing 24 h. The supernatant was collected by centrifugation and stored at −80° C. Cytokines of IL-la, […], and TNF-α were determined by using the method described in the ELISA kit, and signals were detected at a wavelength of 450 nm. The content of inflammatory factors was shown in Table 6 by the secretion amount (pg) of IL-i1α, IL-1β, and TNF-α contained in each mL of the culture solution, and triplicate wells were set for each test.

## C[C@@H]1C[C@H]2[C@@H]3CCC4=CC(=O)C=C[C@]4(C)[C@@]3(F)[C@@H](O)C[C@]2(C)[C@@]1(O)C(=O)CO [Dexamethasone, dexamethasone]
Model group 63.29 ± 0.39
  IL-1α secretion amount in culture solution: 36.30 ± 0.21 pg/mL
Model group 66.29 ± 0.29
  IL-1β secretion amount in culture solution: 24.67 ± 0.65 pg/mL
Model group 92.33 ± 2.25
  TNF-α secretion amount in culture solution: 77.27 ± 2.96 pg/mL
